Measured values reported in ChEMBL document CHEMBL5291721, “A preclinical secondary pharmacology resource illuminates target-adverse drug reaction associations of marketed drugs” (Nat Commun, 2023).

What was measured:
[1] = biological target: T1, Equilibrative nucleoside transporter 1 (Homo sapiens, UniProt Q99808)
T1 sequence (Q99808 whole entry): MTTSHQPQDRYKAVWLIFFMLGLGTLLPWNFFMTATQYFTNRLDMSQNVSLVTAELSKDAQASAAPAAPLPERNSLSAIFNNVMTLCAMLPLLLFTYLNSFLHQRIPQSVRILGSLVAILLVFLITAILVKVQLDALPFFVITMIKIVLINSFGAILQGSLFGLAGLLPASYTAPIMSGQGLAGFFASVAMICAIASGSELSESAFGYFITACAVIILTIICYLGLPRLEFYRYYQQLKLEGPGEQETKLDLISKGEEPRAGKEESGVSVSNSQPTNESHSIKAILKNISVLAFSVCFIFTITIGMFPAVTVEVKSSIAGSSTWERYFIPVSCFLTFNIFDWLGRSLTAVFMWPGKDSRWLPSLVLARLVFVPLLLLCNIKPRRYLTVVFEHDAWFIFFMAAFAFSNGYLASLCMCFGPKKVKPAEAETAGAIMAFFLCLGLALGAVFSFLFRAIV

Histamine H3 receptor = Histamine H3 receptor (Homo sapiens, UniProt Q9Y5N1)
Histamine H3 receptor, sequence (Q9Y5N1 whole entry): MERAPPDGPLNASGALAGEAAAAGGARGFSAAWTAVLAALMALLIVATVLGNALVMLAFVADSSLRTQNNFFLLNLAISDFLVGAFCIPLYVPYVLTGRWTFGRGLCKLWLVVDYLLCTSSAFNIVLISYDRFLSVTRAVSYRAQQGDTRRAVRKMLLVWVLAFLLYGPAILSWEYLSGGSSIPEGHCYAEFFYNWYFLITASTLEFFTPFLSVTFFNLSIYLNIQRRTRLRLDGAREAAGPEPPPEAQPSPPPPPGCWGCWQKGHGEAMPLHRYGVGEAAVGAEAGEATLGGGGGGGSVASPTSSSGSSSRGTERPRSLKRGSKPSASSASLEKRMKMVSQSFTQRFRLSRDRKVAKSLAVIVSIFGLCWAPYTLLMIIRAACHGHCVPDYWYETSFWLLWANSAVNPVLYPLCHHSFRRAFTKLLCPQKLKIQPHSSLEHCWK

[2] = biological target: Sodium-dependent noradrenaline transporter (Homo sapiens, UniProt P23975)
Sodium-dependent noradrenaline transporter, sequence (P23975 whole entry): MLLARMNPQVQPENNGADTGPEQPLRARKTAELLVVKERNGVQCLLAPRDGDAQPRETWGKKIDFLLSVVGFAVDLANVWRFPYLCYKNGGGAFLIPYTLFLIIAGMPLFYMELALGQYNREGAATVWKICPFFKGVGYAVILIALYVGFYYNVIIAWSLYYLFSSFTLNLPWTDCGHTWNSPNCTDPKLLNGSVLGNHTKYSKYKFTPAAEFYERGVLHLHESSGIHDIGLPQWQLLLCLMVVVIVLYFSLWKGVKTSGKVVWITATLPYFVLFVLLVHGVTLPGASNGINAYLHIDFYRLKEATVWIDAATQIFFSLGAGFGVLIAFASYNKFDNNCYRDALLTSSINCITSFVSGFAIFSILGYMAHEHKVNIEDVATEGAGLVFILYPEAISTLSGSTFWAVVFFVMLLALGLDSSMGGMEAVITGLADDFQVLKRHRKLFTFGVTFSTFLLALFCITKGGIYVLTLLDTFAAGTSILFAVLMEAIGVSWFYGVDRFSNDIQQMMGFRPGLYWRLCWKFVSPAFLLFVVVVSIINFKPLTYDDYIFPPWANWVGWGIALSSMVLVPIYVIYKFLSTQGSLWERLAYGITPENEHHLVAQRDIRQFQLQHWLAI

Cannabinoid receptor 1 = Cannabinoid receptor 1 (Homo sapiens, UniProt P21554); type: functional, cell-based
Cannabinoid receptor 1, sequence (P21554 whole entry): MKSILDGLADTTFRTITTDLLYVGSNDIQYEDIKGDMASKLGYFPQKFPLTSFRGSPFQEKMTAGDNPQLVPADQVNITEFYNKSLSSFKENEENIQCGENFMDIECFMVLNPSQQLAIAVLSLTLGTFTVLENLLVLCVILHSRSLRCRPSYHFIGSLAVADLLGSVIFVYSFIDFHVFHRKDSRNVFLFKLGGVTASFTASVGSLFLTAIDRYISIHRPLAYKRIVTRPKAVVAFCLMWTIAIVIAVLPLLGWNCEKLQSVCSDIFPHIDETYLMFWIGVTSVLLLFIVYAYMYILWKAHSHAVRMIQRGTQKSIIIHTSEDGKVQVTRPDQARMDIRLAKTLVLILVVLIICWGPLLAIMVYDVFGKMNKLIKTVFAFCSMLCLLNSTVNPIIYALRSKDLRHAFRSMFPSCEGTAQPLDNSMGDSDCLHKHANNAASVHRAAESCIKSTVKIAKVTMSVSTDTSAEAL

Adenosine receptor A3 = biological target: T2, Adenosine receptor A3 (Homo sapiens, UniProt P0DMS8)
T2 sequence (P0DMS8 whole entry): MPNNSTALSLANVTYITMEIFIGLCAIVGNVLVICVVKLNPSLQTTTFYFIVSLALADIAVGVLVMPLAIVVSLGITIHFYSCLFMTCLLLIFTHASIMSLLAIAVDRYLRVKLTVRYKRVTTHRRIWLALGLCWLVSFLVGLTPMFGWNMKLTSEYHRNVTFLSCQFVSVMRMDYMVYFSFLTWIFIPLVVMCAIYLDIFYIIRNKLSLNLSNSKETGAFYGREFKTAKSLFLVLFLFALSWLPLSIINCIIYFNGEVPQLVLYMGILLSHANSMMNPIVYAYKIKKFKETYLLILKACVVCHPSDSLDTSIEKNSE

[3] = biological target: T3, Alpha-2A adrenergic receptor (Homo sapiens, UniProt P08913); type: functional, cell-based
T3 sequence (P08913 whole entry): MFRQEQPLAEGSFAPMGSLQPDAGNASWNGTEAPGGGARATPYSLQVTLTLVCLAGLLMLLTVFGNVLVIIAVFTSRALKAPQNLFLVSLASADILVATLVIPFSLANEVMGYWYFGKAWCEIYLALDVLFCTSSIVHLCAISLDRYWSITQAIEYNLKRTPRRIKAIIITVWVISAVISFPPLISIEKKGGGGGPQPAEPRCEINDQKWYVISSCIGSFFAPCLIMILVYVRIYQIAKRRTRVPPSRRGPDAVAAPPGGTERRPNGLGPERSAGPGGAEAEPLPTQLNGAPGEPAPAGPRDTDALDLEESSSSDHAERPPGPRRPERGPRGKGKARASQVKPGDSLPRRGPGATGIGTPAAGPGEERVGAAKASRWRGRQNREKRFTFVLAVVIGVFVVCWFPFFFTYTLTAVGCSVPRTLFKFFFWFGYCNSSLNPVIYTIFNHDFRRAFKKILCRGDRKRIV

[4] = biological target: T3, Alpha-2A adrenergic receptor; type: functional, cell-based; remark: listed apart in the source
Estrogen receptor = biological target: T4, Estrogen receptor (Homo sapiens, UniProt P03372)
T4 sequence (P03372 whole entry): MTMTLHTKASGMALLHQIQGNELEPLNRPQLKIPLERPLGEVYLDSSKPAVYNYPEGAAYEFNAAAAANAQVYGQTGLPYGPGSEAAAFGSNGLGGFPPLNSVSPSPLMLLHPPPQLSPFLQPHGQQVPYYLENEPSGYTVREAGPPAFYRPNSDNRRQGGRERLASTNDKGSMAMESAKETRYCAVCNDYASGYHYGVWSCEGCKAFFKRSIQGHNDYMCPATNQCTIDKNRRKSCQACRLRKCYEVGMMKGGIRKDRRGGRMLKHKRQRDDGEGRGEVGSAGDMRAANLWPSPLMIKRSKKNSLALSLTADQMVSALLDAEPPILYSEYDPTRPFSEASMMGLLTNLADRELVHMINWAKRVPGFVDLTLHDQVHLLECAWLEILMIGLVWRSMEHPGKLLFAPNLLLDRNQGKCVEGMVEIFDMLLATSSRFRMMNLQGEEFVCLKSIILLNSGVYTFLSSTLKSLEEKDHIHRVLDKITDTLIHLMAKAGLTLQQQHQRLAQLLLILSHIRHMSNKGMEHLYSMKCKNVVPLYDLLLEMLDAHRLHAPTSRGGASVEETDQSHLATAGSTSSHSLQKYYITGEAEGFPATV
Further: assay procedure not described here.

| SMILES | AC50 [1] [µM] | AC50 (Histamine H3 receptor) [µM] | AC50 [2] [µM] | AC50 (Cannabinoid receptor 1) [µM] | AC50 (Adenosine receptor A3) [µM] | AC50 [3] [µM] | AC50 [4] [µM] | AC50 (Estrogen receptor) [µM] |
| --- | --- | --- | --- | --- | --- | --- | --- | --- |
| CCOc1nc2cccc(C(=O)O)c2n1Cc1ccc(-c2ccccc2-c2nnn[nH]2)cc1 | > 30 | > 30 | > 30 | > 30 | > 30 | > 30 | > 30 |  |
| CCOc1cc([C@@H](CS(C)(=O)=O)N2C(=O)c3cccc(NC(C)=O)c3C2=O)ccc1OC | > 30 | > 30 | > 30 | > 30 | > 30 | > 30 | > 30 |  |
| CC(=O)Nc1ccc(CC(=O)O)cc1 [ACTARIT] | > 30 | > 30 | > 30 | > 30 | > 30 | > 30 | > 30 |  |
| CC(C(=O)O)c1ccc2oc(-c3ccc(Cl)cc3)nc2c1 (configuration not stated) [BENOXAPROFEN] | > 30 | > 30 | > 30 | > 30 | > 30 | > 30 | > 30 |  |
| Nc1c(CC(=O)O)cccc1C(=O)c1ccc(Br)cc1 [BROMFENAC] |  |  |  |  |  |  |  | > 30 |
| CC1(C)S[C@@H]2[C@H](NC(=O)C(C(=O)O)c3ccccc3)C(=O)N2[C@H]1C(=O)O (some centres not stated) [CARBENICILLIN] | > 30 | > 30 | > 30 | > 30 | > 30 | > 30 | > 30 |  |
| Cc1nnc(SCC2=C(C(=O)O)N3C(=O)[C@@H](NC(=O)Cn4cnnn4)[C@H]3SC2)s1 [CEFAZOLIN] | > 300 | > 300 | > 300 | > 300 | > 300 | > 300 | > 300 |  |
| CC=CC1=C(C(=O)O)N2C(=O)[C@@H](NC(=O)[C@H](N)c3ccc(O)cc3)[C@H]2SC1 [CEFPROZIL] | > 30 | > 30 | > 30 |  | > 30 | > 30 | > 30 |  |
| CC(C)(O/N=C(\C(=O)N[C@@H]1C(=O)N2C(C(=O)[O-])=C(C[n+]3ccccc3)CS[C@H]12)c1csc(N)n1)C(=O)O [CEFTAZIDIME] | > 300 | > 300 | > 300 | > 300 | > 300 | > 300 | > 300 |  |
| CCCNC(=O)NS(=O)(=O)c1ccc(Cl)cc1 [CHLORPROPAMIDE] | > 30 | > 10 | > 30 | > 30 | > 30 | > 10 | > 10 |  |
| Clc1ccc(Cn2c(CN3CCCC3)nc3ccccc32)cc1 [CLEMIZOLE] | > 30 | > 30 | > 30 | > 30 | > 30 | > 10 | > 10 |  |
| CCC(=O)O[C@]1(C(=O)CCl)[C@@H](C)C[C@H]2[C@@H]3CCC4=CC(=O)C=C[C@]4(C)[C@@]3(F)[C@@H](O)C[C@@]21C [CLOBETASOL PROPIONATE] | > 30 | > 30 | > 30 | > 30 | > 30 | > 30 | > 30 |  |
| Cc1nc(Nc2ncc(C(=O)Nc3c(C)cccc3Cl)s2)cc(N2CCN(CCO)CC2)n1 [DASATINIB] | > 30 | 12.7 | 6.3 | > 30 | 21.5 | > 10 | > 30 |  |
| CC(C)Cc1ccc([C@H](C)C(=O)O)cc1 [DEXIBUPROFEN] | > 30 | > 30 | > 30 | > 30 | > 30 | > 30 | > 30 |  |
| CNC[C@H](O)c1ccc(O)c(O)c1 [EPINEPHRINE] | > 30 | > 30 | > 30 | > 30 | 18 |  |  |  |
| Cc1onc(-c2c(F)cccc2Cl)c1C(=O)N[C@@H]1C(=O)N2[C@@H]1SC(C)(C)[C@@H]2C(=O)O [FLOXACILLIN] | > 30 | > 30 | > 30 | > 30 | > 30 | > 30 | > 30 |  |
| CCCCCCCN(CC)CCCC(O)c1ccc(NS(C)(=O)=O)cc1 (configuration not stated) [IBUTILIDE] | > 30 | > 30 | > 30 |  | > 30 | > 30 | > 30 |  |
| CC[C@H](C)C(=O)O[C@H]1C[C@@H](C)C=C2C=C[C@H](C)[C@H](CC[C@@H]3C[C@@H](O)CC(=O)O3)[C@H]21 [LOVASTATIN] | > 30 | > 10 | > 10 | > 30 | 28.5 | > 10 | > 10 |  |
| CC[C@@H](CO)NC(=O)[C@@H]1C=C2c3cccc4c3c(cn4C)C[C@H]2N(C)C1 [METHYSERGIDE] | > 30 | > 10 | > 30 | > 30 | > 30 | 11 | > 10 |  |
| CNC(=C[N+](=O)[O-])NCCSCc1csc(CN(C)C)n1 [NIZATIDINE] | > 10 |  | > 10 |  | > 10 | > 10 | > 10 |  |
| CN1Cc2c(N)cccc2C(c2ccccc2)C1 (configuration not stated) [NOMIFENSINE] | > 30 | > 30 |  | > 30 | > 30 | > 30 | > 30 |  |
| CC(CN1c2ccccc2Sc2ccccc21)N(C)C (configuration not stated) [PROMETHAZINE] | > 30 | > 10 | 0.81 | > 30 | > 30 |  |  |  |
| CCCc1cc(=O)[nH]c(=S)[nH]1 [PROPYLTHIOURACIL] | > 10 | > 10 | > 10 |  | > 10 | > 10 | > 10 |  |
| Cn1cc(C(=O)[C@@H]2CCc3nc[nH]c3C2)c2ccccc21 [RAMOSETRON] | > 30 | > 30 | > 30 | > 30 | > 30 | 4.3 | > 30 |  |
| CN(CCOc1ccc(CC2SC(=O)NC2=O)cc1)c1ccccn1 (configuration not stated) [ROSIGLITAZONE] | > 30 | > 30 | > 30 | > 30 | > 30 | 8.6 | > 30 |  |
| S=P(N1CC1)(N1CC1)N1CC1 [THIOTEPA] | > 30 | > 30 |  | > 30 | > 30 | 14 | > 30 |  |
| CC(C)[C@H](N)C(=O)OCCOCn1cnc2c(=O)[nH]c(N)nc21 [VALACYCLOVIR] | > 30 | > 10 | > 10 | > 30 | > 30 | > 10 | > 10 |  |
| COc1cc(C(=O)NS(=O)(=O)c2ccccc2C)ccc1Cc1cn(C)c2ccc(NC(=O)OC3CCCC3)cc12 [ZAFIRLUKAST] | > 10 | > 10 | > 10 | 30 | 11.4 |  |  |  |
